Test results published in US20160340674A1, “Compositions and Methods to Inhibit EZH2 for the Treatment of Cardiovascular Diseases” (UNIVERSITY OF ROCHESTER, priority 2014, published 2016).

Test system: human umbilical vein endothelial cells (HUVECs)
Assay: KLF2 and eNOS gene expression in endothelial cells treated with GSK126 (RT-PCR and q-PCR)
Assay type: cell-based
From the text: Experiments were designed to determine the effects of the EZH2 inhibitor GSK126 on expression of genes KLF2 and eNOS in endothelial cells. Histone methylation is an important epigenetic modification. Histone 3 lysine 27 (H3K27) is correlated with transcriptional repression. EZH2, a histone methytransferase, is critical for the epigenetic maintenance of the H3K27me3 repressive chromatin mark. To determine whether the alternation of histone methylation affects gene expression in endothelial cells, experiments were designed to assess the effects of an EZH2 inhibitor GSK126. […]

[1] = 0.02 μM GSK126 for different times, RT-PCR and q-PCR (FIG. 1)

CC[C@H](C)n1cc(C)c2c(C(=O)NCc3c(C)cc(C)[nH]c3=O)cc(-c3ccc(N4CCNCC4)nc3)cc21 [GSK126, (S)-1-(sec-butyl)-N-((4,6-dimethyl-2-oxo-1,2-dihydropyridin-3-yl)methyl)-3-methyl-6-(6-(piperazin-1-yl)pyridin-3-yl)-1H-indole-4-carboxamide]
level of KLF2 mRNA [1]: increased | level of eNOS mRNA [1]: increased | KLF2 expression (24 hours at different concentrations (FIG. 2A)): dose-dependently increased | eNOS expression (24 hours at different concentrations (FIG. 2B)): dose-dependently increased
